What is called IC50 is the concentration at which inhibition is half-maximal.

Where two headings read alike, the source gives them in different places. Square brackets hold non-standard residues; d marks the D form. Ends that are not written are not given here. Peptide text beside a SMILES is read from it. Cit = NC(=O)NCCC[C@H](N)C(=O)O

One experiment addresses T1, HLA-DRB1*01:01 (Homo sapiens, UniProt P01903+P01911, A100R/D57E/F55L/F60I/F76Y/I96L/L162R/M171V/P40L/Q125E/R42F/V115G/Y59C).
T1 construct: EBV transformed homozygous cell lines were used as sources of MHC molecules; endogenous in cells; host or cells: EBV transformed homozygous cell lines
In words: HLA class II peptide binding, inhibition of radiolabeled peptide binding to purified MHC.

The target of another experiment is T2, HLA-DRB1*04:01 (Homo sapiens, UniProt P01903+P01911, A100K/A169T/F76Y/I96L/K127E/L162R/M171V/N62H/P40V/Q125Y/R42H/S133A/S149N/S66Y/V115G/V209L/W38E).
T2 construct: EBV transformed homozygous cell lines were used as sources of MHC molecules; endogenous in cells; host or cells: EBV transformed homozygous cell lines
Described as above.

The mark [1] stands for this setting: citrullinated 15-mer peptide (X = citrulline), purified HLA-DRB1*01:01, read-out: DRB1*01:01 binding capacity, Cit peptide (IC50 nM).
[2] abbreviates: citrullinated 15-mer peptide (X = citrulline), purified HLA-DRB1*04:01, read-out: DRB1*04:01 binding capacity, Cit peptide (IC50 nM).
[3] abbreviates: citrullinated 15-mer (X), purified MHC, inhibition of radiolabeled peptide binding, dash = IC50 >40,000 nM, read-out: DRB1*01:01 binding capacity, Cit peptide (IC50 nM).
Setting [4] is: citrullinated 15-mer (X), purified MHC, inhibition of radiolabeled peptide binding, dash = IC50 >40,000 nM, read-out: DRB1*04:01 binding capacity, Cit peptide (IC50 nM).
Setting [5] is: ratio of WT IC50 to Cit IC50, >1 = citrullination increases binding.
Setting [6] is: read-out: DRB1*01:01 binding capacity, WT peptide (IC50 nM).
[7] abbreviates: read-out: DRB1*04:01 binding capacity, WT peptide (IC50 nM).
Where [8] appears, read: wild-type (unmodified Arg) 15-mer peptide, purified HLA-DRB1*01:01, read-out: DRB1*01:01 binding capacity, WT peptide (IC50 nM).
[9] abbreviates: wild-type (unmodified Arg) 15-mer peptide, purified HLA-DRB1*04:01, read-out: DRB1*04:01 binding capacity, WT peptide (IC50 nM).

Take `CC(C)[C@H](NC(=O)CNC(=O)[C@H](C)NC(=O)[C@H](C)N)C(=O)N[C@@H](CCCCN)C(=O)NCC(=O)N[C@@H](CC(=O)O)C(=O)N[C@@H](CCCNC(N)=O)C(=O)NCC(=O)N[C@@H](CCC(=O)O)C(=O)N[C@H](C(=O)NCC(=O)N[C@@H](C)C(=O)N[C@H](C(=O)NCC(=O)O)C(C)C)[C@@H](C)O` [AAGVKGDXGETGAVG] (H-AAGVKGD[Cit]GETGAVG-OH): the IC50 at HLA-DRB1*01:01 (setting [1]) was 2010 nM; at HLA-DRB1*04:01 (setting [2]), greater than 40000 nM.

Consider `C[C@H](NC(=O)[C@@H](NC(=O)CNC(=O)[C@@H]1CCCN1C(=O)CNC(=O)CN)[C@@H](C)O)C(=O)N[C@@H](CO)C(=O)N[C@@H](CCCNC(=N)N)C(=O)N1CCC[C@H]1C(=O)N[C@@H](CO)C(=O)N[C@@H](CO)C(=O)N[C@@H](CO)C(=O)N[C@@H](CCCNC(N)=O)C(=O)N[C@@H](CO)C(=O)N[C@@H](Cc1ccc(O)cc1)C(=O)O` [GGPGTASRPSSSXSY] (H-GGPGTASRPSSS[Cit]SY-OH), for which the IC50 on HLA-DRB1*01:01 (setting [3]) is 13800 nM; on HLA-DRB1*04:01 (setting [4]) it was greater than 40000 nM.

As for `CC[C@H](C)[C@H](NC(=O)[C@@H](N)CCSC)C(=O)N[C@@H](CCCNC(N)=O)C(=O)N[C@@H](CC(C)C)C(=O)NCC(=O)N[C@@H](C)C(=O)N1CCC[C@H]1C(=O)N[C@@H](CCC(N)=O)C(=O)N[C@H](C(=O)N[C@@H](CC(C)C)C(=O)N[C@H](C(=O)N[C@@H](CC(C)C)C(=O)N[C@@H](CC(C)C)C(=O)N[C@H](C(=O)N[C@@H](CC(C)C)C(=O)O)[C@@H](C)O)C(C)C)[C@@H](C)O` [MIXLGAPQTLVLLTL] (H-MI[Cit]LGAPQTLVLLTL-OH), the IC50 at HLA-DRB1*01:01 (setting [1]) worked out at 15 nM; at HLA-DRB1*04:01 (setting [2]), 641 nM.

With `CC(C)C[C@H](NC(=O)CNC(=O)[C@H](CCCNC(N)=O)NC(=O)[C@H](C)NC(=O)CNC(=O)[C@@H]1CCCN1C(=O)[C@@H](N)CC(C)C)C(=O)N[C@H](C(=O)NCC(=O)N[C@@H](CCCNC(=N)N)C(=O)N1CCC[C@H]1C(=O)NCC(=O)N[C@@H](CC(=O)O)C(=O)N[C@@H](C)C(=O)NCC(=O)O)[C@@H](C)O` [LPGAXGLTGRPGDAG] (H-LPGA[Cit]GLTGRPGDAG-OH), the IC50 on HLA-DRB1*01:01 (setting [1]) is 2930 nM; at HLA-DRB1*04:01 (setting [2]), greater than 40000 nM.

As to `CC[C@H](C)[C@H](N)C(=O)N[C@@H](CC(=O)O)C(=O)N[C@H](C(=O)N[C@@H](CC(=O)O)C(=O)N[C@H](C(=O)N[C@@H](CO)C(=O)N[C@@H](CCCCN)C(=O)N1CCC[C@H]1C(=O)N[C@@H](CC(=O)O)C(=O)N[C@@H](CC(C)C)C(=O)N[C@H](C(=O)N[C@@H](C)C(=O)N[C@@H](C)C(=O)N[C@@H](CC(C)C)C(=O)N[C@@H](CCCNC(N)=O)C(=O)O)[C@@H](C)O)C(C)C)C(C)C` [IDVDVSKPDLTAALX] (H-IDVDVSKPDLTAAL[Cit]-OH), the IC50 at HLA-DRB1*01:01 (setting [3]) was determined as 935 nM; on HLA-DRB1*04:01 (setting [4]) it was 23500 nM.

On to `CC(C)[C@H](NC(=O)CNC(=O)[C@H](C)NC(=O)[C@H](C)NC(=O)CNC(=O)[C@H](CC(=O)O)NC(=O)[C@H](CCCNC(N)=O)NC(=O)CNC(=O)[C@@H]1CCCN1C(=O)[C@@H]1CCCN1C(=O)CNC(=O)[C@H](CC(=O)O)NC(=O)[C@H](C)NC(=O)CN)C(=O)N[C@@H](CCCCN)C(=O)O` [GADGPPGXDGAAGVK] (H-GADGPPG[Cit]DGAAGVK-OH; N-terminus and C-terminus assumed), for which the half-inhibitory concentration (IC50) at HLA-DRB1*01:01 (setting [1]) and at HLA-DRB1*04:01 (setting [2]) was greater than 40000 nM in each case. Also, the “DRB1*01:01 binding capacity, WT/cit ratio” value at HLA-DRB1*01:01 (setting [5]) is 1.0. The “DRB1*04:01 binding capacity, WT/cit ratio” value at HLA-DRB1*04:01 (setting [5]) came out at 1.0.

With YKSKFADLSEAANRN [Vimentin 291 WT], the figures for the IC50 at HLA-DRB1*01:01 (setting [6]) and on HLA-DRB1*04:01 (setting [7]) were 394 nM and 953 nM, respectively.

Turning to `CC(C)C[C@H](NC(=O)[C@H](CC(C)C)NC(=O)[C@H](CCCNC(N)=O)NC(=O)[C@@H](NC(=O)CNC(=O)[C@@H]1CCCN1C(=O)[C@@H](NC(=O)[C@H](CO)NC(=O)[C@H](CO)NC(=O)[C@H](CCCNC(=N)N)NC(=O)[C@H](CC(C)C)NC(=O)[C@H](CCCNC(=N)N)NC(=O)[C@@H](NC(=O)[C@H](C)NC(=O)[C@@H](N)CO)C(C)C)C(C)C)C(C)C)C(=O)O` [SAVRLRSSVPGVXLL] (H-SAVRLRSSVPGV[Cit]LL-OH), the IC50 on HLA-DRB1*01:01 (setting [3]) turned out to be 9.7 nM; at HLA-DRB1*04:01 (setting [4]) it was 641 nM.

Take `C[C@H](NC(=O)[C@@H](NC(=O)CNC(=O)[C@@H]1CCCN1C(=O)CNC(=O)CN)[C@@H](C)O)C(=O)N[C@@H](CO)C(=O)N[C@@H](CCCNC(N)=O)C(=O)N1CCC[C@H]1C(=O)N[C@@H](CO)C(=O)N[C@@H](CO)C(=O)N[C@@H](CO)C(=O)N[C@@H](CCCNC(=N)N)C(=O)N[C@@H](CO)C(=O)N[C@@H](Cc1ccc(O)cc1)C(=O)O` [GGPGTASXPSSSRSY] (H-GGPGTAS[Cit]PSSSRSY-OH): the IC50 is 10400 nM at HLA-DRB1*01:01 (setting [3]) and greater than 40000 nM on HLA-DRB1*04:01 (setting [4]).

Regarding GEESRISLPLPNFSS [Vimentin 406 WT], the IC50 turned out to be 527 nM at HLA-DRB1*01:01 (setting [8]) and 7570 nM at HLA-DRB1*04:01 (setting [9]).

For `CC(C)C[C@H](NC(=O)CNC(=O)[C@@H]1CCCN1C(=O)[C@H](Cc1ccccc1)NC(=O)CNC(=O)[C@H](CCCNC(=N)N)NC(=O)[C@H](CCC(=O)O)NC(=O)CNC(=O)[C@H](CCCNC(N)=O)NC(=O)[C@H](CCC(N)=O)NC(=O)CNC(=O)[C@@H]1CCCN1)C(=O)N1CCC[C@H]1C(=O)NCC(=O)N1CCC[C@H]1C(=O)O` [PGQXGERGFPGLPGP] (H-PGQ[Cit]GERGFPGLPGP-OH), the IC50 was 6470 nM on HLA-DRB1*01:01 (setting [1]) and greater than 40000 nM at HLA-DRB1*04:01 (setting [2]).

For the compound YATRSSAVRLRSSVP [Vimentin 61 WT], the IC50 on HLA-DRB1*01:01 (setting [6]) came out at 17 nM; at HLA-DRB1*04:01 (setting [7]), 1600 nM.

On to `CC(C)C[C@H](NC(=O)[C@H](CO)NC(=O)[C@H](CCC(N)=O)NC(=O)[C@@H](NC(=O)[C@H](CCC(N)=O)NC(=O)[C@H](CCCNC(=N)N)NC(=O)[C@H](CCCNC(N)=O)NC(=O)[C@H](Cc1ccc(O)cc1)NC(=O)[C@H](CCC(=O)O)NC(=O)[C@@H](NC(=O)[C@@H](N)CO)[C@@H](C)O)C(C)C)C(=O)N[C@H](C(=O)N[C@@H](CS)C(=O)N[C@@H](CCC(=O)O)C(=O)N[C@H](C(=O)O)C(C)C)[C@@H](C)O` [STEYXRQVQSLTCEV] (H-STEY[Cit]RQVQSLTCEV-OH), for which the IC50 at HLA-DRB1*01:01 (setting [1]) came out at 97 nM; on HLA-DRB1*04:01 (setting [2]) it was 1510 nM.

Turning to REGSPGADGPPGRDG [Collagen 1036 WT], the IC50 on HLA-DRB1*01:01 (setting [8]) and on HLA-DRB1*04:01 (setting [9]) was greater than 40000 nM in each case.

On to `CSCC[C@H](NC(=O)[C@H](CCC(=O)O)NC(=O)[C@H](CCC(=O)O)NC(=O)[C@H](CCC(N)=O)NC(=O)[C@H](CC(C)C)NC(=O)[C@H](CCCCN)NC(=O)[C@H](CCC(=O)O)NC(=O)[C@@H](N)CCCNC(=N)N)C(=O)N[C@@H](CC(C)C)C(=O)N[C@@H](CCC(N)=O)C(=O)N[C@@H](CCCNC(N)=O)C(=O)N[C@@H](CCC(=O)O)C(=O)N[C@@H](CCC(=O)O)C(=O)N[C@@H](C)C(=O)N[C@@H](CCC(=O)O)C(=O)O` [REKLQEEMLQXEEAE] (H-REKLQEEMLQ[Cit]EEAE-OH), for which the IC50 on HLA-DRB1*01:01 (setting [3]) was 13200 nM; at HLA-DRB1*04:01 (setting [4]) it was greater than 40000 nM.

Turning to TAALRDVRQQYESVA [Vimentin 266 WT], the concentration for half-maximal inhibition (IC50) on HLA-DRB1*01:01 (setting [6]) stood at 771 nM; on HLA-DRB1*04:01 (setting [7]), 6320 nM.

`CC[C@H](C)[C@H](NC(=O)CNC(=O)[C@H](C)NC(=O)[C@H](C)NC(=O)CNC(=O)[C@H](CCCNC(N)=O)NC(=O)[C@H](CCC(=O)O)NC(=O)CNC(=O)[C@@H]1CCCN1C(=O)[C@H](CCSC)NC(=O)CNC(=O)[C@H](CCC(N)=O)NC(=O)[C@H](CC(C)C)NC(=O)CNC(=O)[C@@H]1CCCN1)C(=O)O` [PGLQGMPGEXGAAGI] (H-PGLQGMPGE[Cit]GAAGI-OH): the IC50 on HLA-DRB1*01:01 (setting [1]) was 55 nM; at HLA-DRB1*04:01 (setting [2]) it was 4170 nM.

As to LLAELEQLKGQGKSR [Vimentin 131 WT], the figures for the IC50 at HLA-DRB1*01:01 (setting [6]) and at HLA-DRB1*04:01 (setting [7]) were 248 nM and greater than 40000 nM, respectively.

Consider YRRMFGGPGTASRPS [Vimentin 11 WT], for which the values for the IC50 at HLA-DRB1*01:01 (setting [6]) and on HLA-DRB1*04:01 (setting [7]) were 440 nM and 9750 nM, respectively.

The record behind these values is PMC5421785, “Citrullination only infrequently impacts peptide binding to HLA class II MHC” (PLoS ONE, 2017).
